Measured values taken from the NIST ThermoML archive (doi:10.1021/je060271a).
Numbers after ± are expanded uncertainties.

Conditions: 323.14 K, Liquid, Vibrating tube method

CCCCCCC(=O)OCC(COC(=O)CCCCCC)(COC(=O)CCCCCC)COC(=O)CCCCCC [pentaerythritol tetraheptanoate]
Conditions	mass density [kg/m3]
1867.1 kPa	956.8 ± 1.2
1879.2 kPa	956.9 ± 1.2
1889.3 kPa	956.8 ± 1.2
1901.4 kPa	957 ± 1.2
1911.9 kPa	956.9 ± 1.2
1922.6 kPa	956.9 ± 1.2
1933.4 kPa	956.9 ± 1.2
1945.7 kPa	956.9 ± 1.2
1956.8 kPa	957 ± 1.2
1967.4 kPa	957 ± 1.2
1980.8 kPa	957 ± 1.2
1992.6 kPa	957 ± 1.2
2003.7 kPa	957.1 ± 1.2
2015.1 kPa	956.9 ± 1.2
2026.2 kPa	956.9 ± 1.2
2040.3 kPa	957.1 ± 1.2
2051.7 kPa	957 ± 1.2
2063 kPa	957 ± 1.2
2075 kPa	956.9 ± 1.2
2089.2 kPa	957.1 ± 1.2
2101.9 kPa	957 ± 1.2
2226.1 kPa	957 ± 1.2
2302.3 kPa	957.1 ± 1.2
2543.1 kPa	957.3 ± 1.2
2581.9 kPa	957.3 ± 1.2
2614.7 kPa	957.4 ± 1.2
2750.1 kPa	957.5 ± 1.2
2958.7 kPa	957.6 ± 1.2
3185.1 kPa	957.8 ± 1.2
3256.6 kPa	957.9 ± 1.2
3279.3 kPa	957.8 ± 1.2
3302.3 kPa	957.9 ± 1.2
3329.7 kPa	957.8 ± 1.2
3352.8 kPa	957.8 ± 1.2
3377 kPa	957.9 ± 1.2
3405.8 kPa	957.9 ± 1.2
3429.7 kPa	958.1 ± 1.2
3454.8 kPa	958 ± 1.2
3479.6 kPa	958 ± 1.2
3509.6 kPa	958 ± 1.2
3534.6 kPa	958.1 ± 1.2
3565.2 kPa	957.9 ± 1.2
3591.4 kPa	958.1 ± 1.2
3617.6 kPa	958 ± 1.2
3974.4 kPa	958.4 ± 1.2
4012.4 kPa	958.4 ± 1.2
4041.1 kPa	958.3 ± 1.2
4057.6 kPa	958.4 ± 1.2
4063.1 kPa	958.4 ± 1.2
4064.9 kPa	958.3 ± 1.2
4065.5 kPa	958.5 ± 1.2
4066.2 kPa	958.5 ± 1.2
4067.3 kPa	958.5 ± 1.2
4068.5 kPa	958.5 ± 1.2
4069.4 kPa	958.6 ± 1.2
4069.5 kPa	958.5 ± 1.2
4070.6 kPa	958.4 ± 1.2
4070.9 kPa	958.4 ± 1.2
4071.6 kPa	958.4 ± 1.2
4087 kPa	958.4 ± 1.2
4104.9 kPa	958.6 ± 1.2
4128 kPa	958.5 ± 1.2
4142.2 kPa	958.4 ± 1.2
4163.9 kPa	958.4 ± 1.2
4182.2 kPa	958.4 ± 1.2
4200.8 kPa	958.5 ± 1.2
4223.1 kPa	958.5 ± 1.2
4242.2 kPa	958.5 ± 1.2
4261 kPa	958.6 ± 1.2
4283.7 kPa	958.6 ± 1.2
4303.6 kPa	958.5 ± 1.2
4323.2 kPa	958.5 ± 1.2
4347.4 kPa	958.6 ± 1.2
4367.2 kPa	958.6 ± 1.2
4384.2 kPa	958.6 ± 1.2
4401.5 kPa	958.6 ± 1.2
4419 kPa	958.8 ± 1.2
4440.1 kPa	958.7 ± 1.2
4458.6 kPa	958.6 ± 1.2
4475.9 kPa	958.6 ± 1.2
4487.7 kPa	958.7 ± 1.2
4498.8 kPa	958.7 ± 1.2
4507.3 kPa	958.8 ± 1.2
4516.1 kPa	958.6 ± 1.2
4528.2 kPa	958.7 ± 1.2
4546.9 kPa	958.7 ± 1.2
4567.4 kPa	958.6 ± 1.2
4588 kPa	958.7 ± 1.2
4612.9 kPa	958.7 ± 1.2
4634.2 kPa	958.7 ± 1.2
4656 kPa	958.8 ± 1.2
4677.4 kPa	958.8 ± 1.2
4703.4 kPa	958.9 ± 1.2
4725.2 kPa	958.9 ± 1.2
4747.6 kPa	958.9 ± 1.2
4774 kPa	958.9 ± 1.2
4796.4 kPa	958.9 ± 1.2
4819 kPa	958.9 ± 1.2
4845.9 kPa	958.9 ± 1.2
4869.6 kPa	959 ± 1.2
4893.1 kPa	959 ± 1.2
4921 kPa	959 ± 1.2
4945 kPa	958.9 ± 1.2
4968.9 kPa	959 ± 1.2
4997.5 kPa	959 ± 1.2
5022.2 kPa	959 ± 1.2
5047.1 kPa	959.1 ± 1.2
5072.5 kPa	959.1 ± 1.2
5103.3 kPa	959.1 ± 1.2
5129.3 kPa	959.1 ± 1.2
5156.3 kPa	959.1 ± 1.2
5189.2 kPa	959.2 ± 1.2
5217.4 kPa	959.1 ± 1.2
5240.4 kPa	959.1 ± 1.2
5260.4 kPa	959.1 ± 1.2
5280.7 kPa	959.4 ± 1.2
5304 kPa	959.2 ± 1.2
5323.4 kPa	959.2 ± 1.2
5347.3 kPa	959.4 ± 1.2
5367.7 kPa	959.3 ± 1.2
5388.5 kPa	959.3 ± 1.2
5408.9 kPa	959.3 ± 1.2
5429.5 kPa	959.2 ± 1.2
5454.7 kPa	959.2 ± 1.2
5475.8 kPa	959.3 ± 1.2
5497.3 kPa	959.3 ± 1.2
5522.7 kPa	959.4 ± 1.2
5543.9 kPa	959.5 ± 1.2
5565.6 kPa	959.4 ± 1.2
5591.3 kPa	959.3 ± 1.2
5613.3 kPa	959.5 ± 1.2
5635.4 kPa	959.4 ± 1.2
5662.4 kPa	959.4 ± 1.2
5684.7 kPa	959.6 ± 1.2
5707.9 kPa	959.4 ± 1.2
5735.2 kPa	959.5 ± 1.2
5758 kPa	959.5 ± 1.2
5781.4 kPa	959.5 ± 1.2
5804.9 kPa	959.7 ± 1.2
5833.6 kPa	959.6 ± 1.2
5857.5 kPa	959.6 ± 1.2
5886 kPa	959.5 ± 1.2
5910.2 kPa	959.7 ± 1.2
5935.4 kPa	959.7 ± 1.2
5964.8 kPa	959.7 ± 1.2
5989.9 kPa	959.7 ± 1.2
6015.7 kPa	959.6 ± 1.2
6041.2 kPa	959.8 ± 1.2
6072.5 kPa	959.7 ± 1.2
6099.5 kPa	959.8 ± 1.2
6127 kPa	959.7 ± 1.2
6154.7 kPa	959.8 ± 1.2
6180.8 kPa	959.8 ± 1.2
6202.1 kPa	959.8 ± 1.2
6224.2 kPa	959.8 ± 1.2
6246.2 kPa	959.9 ± 1.2
6272.6 kPa	959.8 ± 1.2
6294.4 kPa	960 ± 1.2
6316.9 kPa	959.8 ± 1.2
6344 kPa	959.8 ± 1.2
6366.6 kPa	959.9 ± 1.2
6393.8 kPa	960 ± 1.2
6417.3 kPa	960 ± 1.2
6441.6 kPa	959.9 ± 1.2
6466 kPa	960 ± 1.2
6489.5 kPa	960.2 ± 1.2
6513.7 kPa	960 ± 1.2
6542.9 kPa	960 ± 1.2
6566.4 kPa	960 ± 1.2
6595.3 kPa	960.1 ± 1.2
6619.5 kPa	960.1 ± 1.2
6644.3 kPa	960 ± 1.2
6674.1 kPa	960.1 ± 1.2
6699.1 kPa	960.1 ± 1.2
6724.7 kPa	960.1 ± 1.2
6755.6 kPa	960.2 ± 1.2
6782.2 kPa	960.3 ± 1.2
6809 kPa	960.2 ± 1.2
6835.2 kPa	960.2 ± 1.2
6861.8 kPa	960.1 ± 1.2
6893.8 kPa	960.2 ± 1.2
6920.9 kPa	960.2 ± 1.2
6948.7 kPa	960.3 ± 1.2
6976.5 kPa	960.3 ± 1.2
7009.5 kPa	960.4 ± 1.2
7037.3 kPa	960.3 ± 1.2
7072 kPa	960.4 ± 1.2
7101 kPa	960.5 ± 1.2
7131.4 kPa	960.4 ± 1.2
7161.8 kPa	960.4 ± 1.2
7190 kPa	960.5 ± 1.2
7218.1 kPa	960.4 ± 1.2
7240 kPa	960.6 ± 1.2
7262.7 kPa	960.5 ± 1.2
7289.6 kPa	960.7 ± 1.2
7312 kPa	960.5 ± 1.2
7334.9 kPa	960.6 ± 1.2
7357.8 kPa	960.5 ± 1.2
7385.4 kPa	960.6 ± 1.2
7408.7 kPa	960.6 ± 1.2
7433.1 kPa	960.6 ± 1.2
7457.4 kPa	960.6 ± 1.2
7486.4 kPa	960.7 ± 1.2
7510.8 kPa	960.7 ± 1.2
7534.2 kPa	960.6 ± 1.2
7558.2 kPa	960.7 ± 1.2
7587.6 kPa	960.7 ± 1.2
7611.9 kPa	960.8 ± 1.2
7637.3 kPa	960.8 ± 1.2
7666.8 kPa	960.8 ± 1.2
7692.5 kPa	960.7 ± 1.2
7717.9 kPa	960.9 ± 1.2
7743.3 kPa	960.9 ± 1.2
7773.8 kPa	960.8 ± 1.2
7799.7 kPa	960.7 ± 1.2
7826.1 kPa	960.9 ± 1.2
7857.2 kPa	961 ± 1.2
7883.6 kPa	960.9 ± 1.2
7910 kPa	961 ± 1.2
7941.6 kPa	961 ± 1.2
7968.3 kPa	961 ± 1.2
7995.6 kPa	961 ± 1.2
8028.4 kPa	961 ± 1.2
8056 kPa	961.1 ± 1.2
